According to PMC4169579, “Proteolytic Activity of Prostate-Specific Antigen (PSA) towards Protein Substrates and Effect of Peptides Stimulating PSA Activity” (PLoS ONE, 2014):
Like-named read-outs stand apart in the source and are kept apart here.

Key:
PSA [1] = molecular target: T1, PSA (Homo sapiens, UniProt P07288); conditions: ref [15], [47]; cited from earlier work
T1 construct: from tissue; host or cells: pooled human seminal fluid
Text: Previously, several selective and efficient substrates for PSA have been described. We used a fluorogenic peptide substrate identified by Denmeade and coworkers (1997). […] These differences may be explained by higher activity of the highly pu ...

PSA [2] = molecular target: T1, PSA; experiment: Enzyme kinetics of PSA with chromogenic peptide substrate S-2586; format: biochemical; conditions: S-2586 0.125–5 mM, 175 nM PSA, 0.1% BSA-TBS, room temperature, mean ± SD of two experiments
Procedure: (§1) The major form of active PSA (isoform PSA-B) was purified from pooled human seminal fluid by immunoaffinity chromatography followed by anion exchange chromatography. Semenogelins I and II were isolated from human seminal fluid as previously described, but instead of alkylating the proteins, the reducing agent 30 mM dithiothreitol (Sigma-Aldrich, St. Louis, MO) was included in all buffers during purification. Semenogelins were stored in the purification buffer containing 2 M urea and 5 mM EDTA at −70°C. Prior to cleavage by PSA, the buffer was exchanged to 50 mM Tris, pH 7.7, containing 0.15 M NaCl (TBS), with Amicon Ultra centrifugal filter units (MW cut-off 30 kDa) (Millipore, Cork, Ireland) at 4°C, and protein concentration was determined by measuring absorbance at 280 nm.
The proteolytic activity of PSA towards small peptide substrates was compared with two different substrates. […] The absorbance was measured at 405 nm immediately and at 5 min intervals for 30 min and fluorescence at 355/460 nm (excitation/emission) after 10 min, 20 min, 40 min, 1 h, 2 h and 4 h incubation at room temperature with a Victor 1420 Multilabel plate reader (PerkinElmer). […]
The maximum velocity of the reaction (Vmax) and the Michaelis constant (Km), i.e., substrate concentration at which the reaction rate is half of the maximum, were evaluated for PSA with both peptide substrates using Sigma Plot 11 with the Enzyme Kinetics Module 1.3 (SYSTAT Software, Inc., San Jose, CA) and the catalytic constant (kcat), i.e., the number of substrate molecules converted to product per time unit, was calculated from the equation kcat = Vmax/[PSA]. The absorbance was converted to molar concentration with the Lambert-Beer equation (A = εcl), using the molar absorptivity of pNA (εpNA = 8800 M^−1cm^−1). Fluorescence (counts per second, cps) was transformed to molar concentrations with SigmaPlot by means of a standard curve for 7-amido-4-methylcoumarin (AMC, Sigma-Aldrich).

HUVECs [3] = tested on: HUVECs; set-up: method as in PMID 10702407, PMID 20713592; conditions: full-length galectin-3; ref [55], [72]; cited from earlier work
HUVECs [4] = experiment: HUVEC tube formation assay on Matrigel; format: cell-based, human; conditions: two separate experiments
Procedure: Human umbilical vein endothelial cells (HUVECs) were isolated from umbilical cord veins and grown in Endothelial Cell Growth Medium (Promocell, Heidelberg, Germany) with 2% Ultroser G BioSepra serum substitute (PALL BioSepra, Cergy, France) and growth factors EGF and bFGF. For tube formation, HUVECs were grown on top of Matrigel (BD Biosciences) as described previously, [29].
To study the effect of PSA-cleaved protein fragments, 0.08 µM nidogen-1 or 0.4 µM galectin-3 (10 µg/ml each) were first incubated with 1 µM PSA for 24 h at 37°C in PBS (Lonza). Then PSA activity was blocked by one-hour incubation at room temperature with 2 µM monoclonal antibody 5C7 [38]. The mixture containing nidogen-1 or galectin-3 fragments with PSA blocked by antibody or the same amount of intact nidogen-1 or galectin-3 were added together with the cells onto gelled Matrigel and the cells were allowed to form tubular networks for 20 h. Control wells contained either PBS or 1 µM PSA. After overnight incubation, cell culture medium was collected from PBS and PSA control wells for SDS-PAGE and Western blotting. Images of tubular networks (100×magnification) were taken using an Axiovert 200 inverted light microscope connected to an AxioCam digital camera and visualized by AxioVision software (all from Zeiss, Göttingen, Germany).

PSA [5] = molecular target: T1, PSA; experiment: Proteolytic cleavage of protein substrates by PSA (SDS-PAGE, silver staining); format: biochemical; conditions: 22 h incubation, 37°C, different plasminogen preparations and PSA batches
Procedure: as §1
Protein LoBind tubes (Eppendorf AG, Hamburg, Germany) were used in all protein degradation experiments.
PSA (0.2–1 µM) and 0.5–1 µM of each protein substrate were incubated at 37°C for 22 h in TBS buffer. During the incubation, samples of 15 µl were taken at different time points: 0 min, 10 min, 30 min, 2 h, 5 h and 22 h, and stored at −20°C before further analysis.
Immediately after each incubation, reducing 4× SDS-loading buffer (8% SDS), containing 1 M β-mercaptoethanol or 75 mM dithiothreitol, was added to each sample and proteins were denatured at 70°C for 10 min. The samples were immediately analyzed by SDS-PAGE or frozen at −20°C. Frozen samples were heated again at 70°C before loading on the gel. The cleavage of protein substrates by PSA, i.e., the disappearance of the full-length protein bands, was quantified from scanned images of silver stained gels by the measurement of relative optical densities of the protein bands using ImageJ [40]. […]
Proteins were visualized either by silver staining or Western blotting. […] After 30 min incubation in 0.2% AgNO3, the gel was rinsed briefly with water and proteins were detected with development solution, containing 700 µl/l of 37% formaldehyde, 0.001% sodium thiosulfate and 3% anhydrous Na2CO3. […]

PSA [6] = molecular target: T1, PSA; conditions: reported to inhibit angiogenesis in vitro; ref [20]; cited from earlier work
Procedure: In the present study, we compared the proteolytic activity of PSA towards several protein substrates. As shown previously, semenogelins are cleaved very effectively by PSA. Malm and coworkers (2000) reported that more than half of semenogelin I is degraded after 15 min incubation with PSA [16], [63] and we observed this after 11 min incubation. Proteolysis of the other protein substrates, i.e., fibronectin, IGFBP-3, galectin-3 and nidogen-1, took much longer, reflecting the high substrate specificity of PSA for semenogelins. […] However, the detailed mechanism of the antiangiogenic activity of PSA remains unclear. Some of the proteolytically produced fragments of extracellular matrix (ECM) proteins act as endogenous angiogenesis inhibitors and may mediate the antiangiogenic effect of PSA. […] Although plasminogen ...

T1 sequence (P07288 25-261): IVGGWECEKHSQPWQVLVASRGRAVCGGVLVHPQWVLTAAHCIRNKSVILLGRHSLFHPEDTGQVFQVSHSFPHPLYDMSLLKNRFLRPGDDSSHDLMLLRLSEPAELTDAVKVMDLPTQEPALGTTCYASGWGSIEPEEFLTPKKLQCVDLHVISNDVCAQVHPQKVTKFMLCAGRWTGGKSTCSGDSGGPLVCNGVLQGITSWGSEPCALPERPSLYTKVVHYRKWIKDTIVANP

MeO-Suc-Arg-Pro-Tyr-pNA·HCl [Chromogenic substrate, chromogenic chymotrypsin substrate S-2586]
kcat/Km reported previously, compared to this study (PSA [1]): somewhat lower than that we observed
Km (PSA [2]; 405 nm, 5 min intervals for 30 min): 5.72 ± 1.53 mM
kcat/Km (PSA [2]): 133.4±24.6 s^−1M^−1
kcat (PSA [2]; kcat = Vmax/[PSA]): 0.75 ± 0.07 s⁻¹

galectin-3: recombinant human galectin-3
angiogenesis (HUVECs [3]): promote angiogenesis
effect on tube formation, PSA-generated fragments (HUVECs [4]; 10 µg/ml (0.08 µM nidogen-1, 0.4 µM galectin-3) precleaved by 1 µM PSA 24 h, PSA blocked by mAb 5C7, 20 h): did not have any effect on tube formation
effect on tube formation, full-length protein (HUVECs [4]; 10 µg/ml (0.08 µM nidogen-1, 0.4 µM galectin-3), 20 h, HUVECs on Matrigel): did not have any effect on tube formation

plasminogen: plasminogen (Calbiochem and Hyphen BioMed) and lys-plasminogen from human plasma
cleavage of plasminogen by PSA (PSA [5]): PSA did not cleave plasminogen
cleavage of plasminogen by PSA (PSA [6]): cleave plasminogen to angiostatin-like fragments
